Literature values as cited in patent US20110086898A1, “PYRAZOLOOXAZOLE COMPOUND” (Eisai R&D Management Co., Ltd., priority 2009, published 2011).

How the values were obtained:
[1] = test system: gastric emptying retardation after surgery; conditions: Gastroenterology, 125:654-659 (2003); cited from earlier work
[2] = test system: learning disability following acute stress; conditions: Behavioural Brain Research, 138: 207-213 (2003); cited from earlier work
rats [3] = conditions: Psychopharmacology, 150:317-324 (2000); cited from earlier work
rats [4] = conditions: Psychopharmacology, 137:184-190 (1998); cited from earlier work
[5] = test system: naltrexone-induced morphine withdrawal symptoms; conditions: pretreatment; Journal of Neurochemistry, 74: 199-208 (2000); cited from earlier work
rats [6] = conditions: European Journal of Pharmacology, 492:195-201 (2004); cited from earlier work
rats [7] = conditions: European Journal of Neuroscience, 13:373-380 (2001); cited from earlier work
high-anxiety rats = conditions: particularly in high-anxiety rats; Journal of Psychiatric Research, 36:197-208 (2002); cited from earlier work
[8] = test system: depression, depressive symptoms, anxiety; conditions: Journal of Psychiatric Research, 34:171-181 (2000); cited from earlier work
rat = conditions: Brain Research, 893:29-35 (2001); cited from earlier work
limbic system seizure = conditions: Brain Research, 770:89-95; cited from earlier work
Tg2576 transgenic mice = conditions: Journal of Neurochemistry, 108: 165-175 (2009); cited from earlier work
[9] = test system: hippocampal tau phosphorylation; conditions: Journal of Neuroscience, 27 (24): 6552-6562 (2007); cited from earlier work
[10] = test system: hypertension induced by intraventricular administration of CRF; conditions: Brain Research, 881: 204-207 (2000); cited from earlier work

For CCCCN(CC)c1nc(C)nc2c1c(C)cn2-c1c(C)cc(C)cc1C [CP-154526], the “gastric emptying retardation after surgery” value [1] is given as “recovers”, the “learning disability following acute stress” value [2] is given as “inhibits” and the “recurrence of stress-elicited alcohol-seeking behavior” value (rats [3]) is given as “inhibits”. For the same compound, the “recurrence of stress-elicited drug (heroin, cocaine)-seeking behavior” value (rats [4]) was “inhibits”, the “naltrexone-induced morphine withdrawal symptoms” value [5] was “inhibits” and the “anti-depressant and anti-anxiety actions” value (rats [6]) was “exhibits anti-depressant and anti-anxiety actions”.
For CCCN(CCC)c1cc(C)nc2c(-c3cnc(N(C)C)cc3C)c(C)nn12 [Example R121919], the anti-anxiety action (rats [7]) is given as “exhibits an anti-anxiety action”, the stress-related sleep disorder (high-anxiety rats) is given as “inhibits” and the “ameliorating depression, depressive symptoms, anxiety” value [8] is given as “effective”.
For CCCN(CC1CC1)c1nc(C)nc(Nc2c(Cl)cc(Cl)cc2Cl)c1Cl [NBI-27914], the “water avoidance stress-related rat catharsis” value (rat) is given as “inhibits”, the “limbic system seizure (convulsion and epilepsy induced by CRF administration)” value (limbic system seizure) is given as “inhibits” and the “increased levels of Aβ and Aβ plaque deposition induced by stress” value (Tg2576 transgenic mice) is given as “inhibits”.
In the case of CCCCN(CC)c1nc(C)nc2c1c(C)c(C)n2-c1c(C)cc(C)cc1C [antalarmin], the “stress-induced hippocampal tau phosphorylation” value [9] is given as “inhibits” and the “hypertension induced by intraventricular administration of CRF” value [10] is given as “inhibits”.
